Measurements: patent US6218406A, “Farnesyl transferase inhibitors, their preparation, the pharmaceutical compositions which contain them and their use in the preparation of medicaments” (Aventis Pharma S.A., priority 1996, dated 2001)

What follows are molecules tested against farnesyl transferase (Homo sapiens, UniProt P49354+P49356) (assay: Farnesyl transferase inhibition, [3H]-farnesylation of biotinylated K-ras C-terminal peptide (SPA assay)). Settings: In vitro inhibitory activity (K-Ras) IC50, K-Ras substrate; 60 min at 37° C.; mean of two IC50 values.
Assay type: biochemical
Protocol: The farnesyl transferase activity was measured by the amount farnesylated of K-ras substrate or of substrate derived from the peptide corresponding to its C-terminal part, the farnesyl group being introduced by farnesyl pyrophosphate (FPP).
It was then brought into contact with PVT-streptavidin (Amersham)® beads and was quantified by proximity scintillation (SPA assay) between the tritium and the PVT beads, by virtue of the streptavidin/biotin interaction.
Experimentally, farnesyl transferase purified according to the appended protocol was diluted, for this assay, to a concentration such that a consumption of substrates of less than 30% was obtained.
The reaction, carried out in Optiplates 96° microtitration plates, was initiated by the enzyme and lasted sixty minutes at 37° C. It was stopped by addition of 150 μl of mixture of a blocking buffer at pH 4 composed of 0.2M H3 PO4, 1.5 mM MgCl2, 0.5% (w/v) BSA, 0.05% (w/v) sodium azide containing 200 μg of PVT-streptavidin beads.
After slow agitation for thirty minutes (in order to remove the chemiluminescence), the plates were read as [^3 H]CPM in a Top Count® (Packard) scintillation counter for microplates, where they were converted into [^3 H]DPM from a range of coloured agent attenuating the scintillation (quenching).
The percentages of inhibition were calculated with respect to an inhibitor-free control after subtraction from all the values of that of a blank which only contained the substrates and the buffer.
The IC50 values were calculated or measured, from the inhibitions obtained at nine different concentrations, with Enzfitter® or Grafit® software. The IC50 values which appear in the results are the mean of measurements and calculations of two IC50 values.
In the case of `C=C(C(=O)N1C[C@@H]2[C@@]3(c4ccsc4)CC[C@@H](c4ccccc43)[C@]2(C(=O)O)C1)c1ccccc1OC` (racemic) [Example 58, (3aRS,4SR,9SR,9aRS)-4,9-ethano-2-[2-(2-methoxyphenyl)propenoyl]-9-(3-thienyl)-2,3,3a,4,9,9a-hexahydro-1H-benzo[f]isoindole-3a-carboxylic Acid], the IC50 is reported as 138 nM.

Same assay, conditions: K-Ras substrate; 60 min at 37° C.; mean of two IC50 values; read-out: In vitro inhibitory activity (K-Ras) IC50
Molecule `C=C(C(=O)N1C[C@@H]2[C@]3(c4ccc(Cl)cc4)CC[C@@H](c4ccccc43)[C@]2(C(=O)OC)C1)c1ccccc1OC` (racemic) [Example 52, methyl (3aRS,4SR,9SR,9aRS)-9-(4-chlorophenyl)-4,9-ethano-2-[2-(2-methoxyphenyl)-propenoyl]-2,3,3a,4,9,9a-hexahydro-1H-benzo[f]isoindole-3a-carboxylate] has an IC50 of 181 nM.
With `C=C(C(=O)N1C[C@@H]2[C@]3(c4ccc(Cl)cc4)CC[C@@H](c4ccccc43)[C@]2(C(=O)O)C1)c1ccccc1OC` (racemic) [Example 53, (3aRS,4SR,9SR,9aRS)-9-(4-chlorophenyl)-4,9-ethano-2-[2-(2-methoxyphenyl)propenoyl]-2,3,3a,4,9,9a-hexahydro-1H-benzo[f]isoindole-3a-carboxylic Acid] the IC50 was 20 nM.
For `C=C(C(=O)N1C[C@@H]2[C@]3(c4ccc(OC)c(C)c4)CC[C@@H](c4ccccc43)[C@]2(C(=O)O)C1)c1ccccc1OC` (racemic) [Example 54, (3aRS,4SR,9SR,9aRS)-4,9-ethano-2-[2-(2-methoxyphenyl)propenoyl]-9-(4-methoxy-3-methylphenyl)-2,3,3a,4,9,9a-hexahydro-1H-benzo[f]isoindole-3a-carboxylic Acid], the IC50 was 78 nM.
`C=C(C(=O)N1C[C@@H]2[C@@]3(c4c[nH]c5ccccc45)CC[C@@H](c4ccccc43)[C@]2(C(=O)OC)C1)c1ccccc1OC` (racemic) [Example 55, methyl (3aRS,4SR,9SR,9aRS)-4,9-ethano-2-[2-(2-methoxyphenyl)propenoyl]-9-(3-indolyl)-2,3,3a,4,9,9a-hexahydro-1H-benzo[f]isoindole-3a-carboxylate] gave an IC50 of 558 nM.
`COc1ccccc1CC(=O)N1C[C@@H]2[C@]3(c4ccc(C(C)C)cc4)CC[C@@H](c4ccccc43)[C@]2(C(=O)O)C1` (racemic) [Example 56, (3aRS,4SR,9SR,9aRS)-4,9-ethano-9-(4-isopropylphenyl)-2-[(2-methoxyphenyl)acetyl]-2,3,3a,4,9,9a-hexahydro-1H-benzo[f]isoindole-3a-carboxylic Acid] showed an IC50 of 589 nM.
With `C=C(C(=O)N1C[C@@H]2[C@]3(c4ccc(C(C)C)cc4)CC[C@@H](c4ccccc43)[C@]2(C(=O)O)C1)c1ccccc1OC` (racemic) [Example 57, (3aRS,4SR,9SR,9aRS)-4,9-ethano-9-(4-isopropylphenyl)-2-[2-(2-methoxyphenyl)propenoyl]-2,3,3a,4,9,9a-hexahydro-1H-benzo[f]isoindole-3a-carboxylic Acid] the IC50 was 280 nM.
`C=C(C(=O)N1C[C@@H]2[C@]3(c4ccc(CC)cc4)CC[C@@H](c4ccccc43)[C@]2(C(=O)OC)C1)c1ccccc1OC` (racemic) [Example 59, methyl (3aRS,4SR,9SR,9aRS)-4,9-ethano-9-(4-ethylphenyl)-2-[2-(2-methoxyphenyl)propenoyl]-2,3,3a,4,9,9a-hexahydro-1H-benzo[f]isoindole-3a-carboxylate] showed an IC50 of 408 nM.
Work on `C=C(C(=O)N1C[C@@H]2[C@]3(c4ccc(CC)cc4)CC[C@@H](c4ccccc43)[C@]2(C(=O)O)C1)c1ccccc1OC` (racemic) [Example 60, (3aRS,4SR,9SR,9aRS)-4,9-ethano-9-(4-ethylphenyl)-2-[2-(2-methoxyphenyl)propenoyl]-2,3,3a,4,9,9a-hexahydro-1H-benzo[f]isoindole-3a-carboxylic Acid] yielded an IC50 of 124 nM.
Molecule `C=C(C(=O)N1C[C@@H]2[C@]3(c4ccc5c(c4)CCO5)CC[C@@H](c4ccccc43)[C@]2(C(=O)OC)C1)c1ccccc1OC` (racemic) [Example 61, methyl (3aRS,4SR,9SR,9aRS)-9-(2,3-dihydrobenzofuran-5-yl)-4,9-ethano-2-[2-(2-methoxyphenyl)propenoyl]-2,3,3a,4,9,9a-hexahydro-1H-benzo[f]isoindole-3a-carboxylate] has an IC50 of 178 nM.
For `C=C(C(=O)N1C[C@@H]2[C@]3(c4ccc5c(c4)CCO5)CC[C@@H](c4ccccc43)[C@]2(C(=O)O)C1)c1ccccc1OC` (racemic) [Example 62, (3aRS,4SR,9SR,9aRS)-9-(2,3-dihydrobenzofuran-5-yl)-4,9-ethano-2-[2-(2-methoxyphenyl)propenoyl]-2,3,3a,4,9,9a-hexahydro-1H-benzo[f]isoindole-3a-carboxylic Acid], the IC50 was 36 nM.
For `C=C(C(=O)N1C[C@@H]2[C@]3(c4ccc(F)cc4)CC[C@@H](c4ccccc43)[C@]2(C(=O)OC)C1)c1ccccc1OC` (racemic) [Example 64, methyl (3aRS,4SR,9SR,9aRS)-4,9-ethano-9-(4-fluorophenyl)-2-[2-(2-methoxyphenyl)propenoyl]-2,3,3a,4,9,9a-hexahydro-1H-benzo[f]isoindole-3a-carboxylate], the IC50 was 325 nM.
Work on `C=C(C(=O)N1C[C@@H]2[C@]3(c4ccc(F)cc4)CC[C@@H](c4ccccc43)[C@]2(C(=O)O)C1)c1ccccc1OC` (racemic) [Example 65, (3aRS,4SR,9SR,9aRS)-4,9-ethano-9-(4-fluorophenyl)-2-[2-(2-methoxyphenyl)propenoyl]-2,3,3a,4,9,9a-hexahydro-1H-benzo[f]isoindole-3a-carboxylic acid] yielded an IC50 of 40 nM.
`C=C(C(=O)N1C[C@@H]2[C@]3(c4ccc(Cl)c(F)c4)CC[C@@H](c4ccccc43)[C@]2(C(=O)OC)C1)c1ccccc1OC` (racemic) [Example 66, methyl (3aRS,4SR,9SR,9aRS)-9-(4-chloro-3-fluorophenyl)-4,9-ethano-2-[2-(2-methoxyphenyl)-propenoyl]-2,3,3a,4,9,9a-hexahydro-1H-benzo[f]isoindole-3a-carboxylate] showed an IC50 of 379 nM.
With `C=C(C(=O)N1C[C@@H]2[C@]3(c4ccc(Cl)c(F)c4)CC[C@@H](c4ccccc43)[C@]2(C(=O)O)C1)c1ccccc1OC` (racemic) [Example 67, (3aRS,4SR,9SR,9aRS)-9-(4-chloro-3-fluorophenyl)-4,9-ethano-2-[2-(2-methoxyphenyl)propenoyl]-2,3,3a,4,9,9a-hexahydro-1H-benzo[f]isoindole-3a-carboxylic Acid] the IC50 was 101 nM.
With `C=C(C(=O)N1C[C@@H]2[C@]3(c4cccc(C)c4)CC[C@@H](c4ccccc43)[C@]2(C(=O)OC)C1)c1ccccc1OC` (racemic) [Example 68, methyl (3aRS,4SR,9SR,9aRS)-4,9-ethano-2-[2-(2-methoxyphenyl)propenoyl]-9-(3-methylphenyl)-2,3,3a,4,9,9a-hexahydro-1H-benzo[f]isoindole-3a-carboxylate] the IC50 was 431 nM.
`C=C(C(=O)N1C[C@@H]2[C@]3(c4cccc(C)c4)CC[C@@H](c4ccccc43)[C@]2(C(=O)O)C1)c1ccccc1OC` (racemic) [Example 69, (3aRS,4SR,9SR,9aRS)-4,9-ethano-2-[2-(2-methoxyphenyl)propenoyl]-9-(3-methylphenyl)-2,3,3a,4,9,9a-hexahydro-1H-benzo[f]isoindole-3a-carboxylic Acid] was tested, and the IC50 was 53 nM.
Work on `C=C(C(=O)N1C[C@@H]2[C@]3(c4ccc5c(c4)OCO5)CC[C@@H](c4ccccc43)[C@]2(C(=O)O)C1)c1ccccc1OC` (racemic) [Example 70, (3aRS,4SR,9SR,9aRS)-9-(1,3-benzodioxol-5-yl)-4,9-ethano-2-[2-(2-methoxyphenyl)propenoyl]-2,3,3a,4,9,9a-hexahydro-1H-benzo[f]isoindole-3a-carboxylic Acid] yielded an IC50 of 67 nM.
`C=C(C(=O)N1C[C@@H]2[C@]3(c4ccc(C)c(C)c4)CC[C@@H](c4ccccc43)[C@]2(C(=O)OC)C1)c1ccccc1OC` (racemic) [Example 71, methyl (3aRS,4SR,9SR,9aRS)-9-(3,4-dimethylphenyl)-4,9-ethano-2-[2-(2-methoxyphenyl)propenoyl]-2,3,3a,4,9,9a-hexahydro-1H-benzo[f]isoindole-3a-carboxylate] gave an IC50 of 335 nM.
`C=C(C(=O)N1C[C@@H]2[C@]3(c4ccc(C)c(C)c4)CC[C@@H](c4ccccc43)[C@]2(C(=O)O)C1)c1ccccc1OC` (racemic) [Example 72, (3aRS,4SR,9SR,9aRS)-9-(3,4-dimethylphenyl)-4,9-ethano-2-[2-(2-methoxyphenyl)propenoyl]-2,3,3a,4,9,9a-hexahydro-1H-benzo[f]isoindole-3a-carboxylic Acid] showed an IC50 of 98 nM.
`C=C(C(=O)N1C[C@@H]2[C@]3(c4ccc(OC)cc4)CC[C@@H](c4ccccc43)[C@]2(C(=O)OC)C1)c1ccccc1OC` (racemic) [Example 73, methyl (3aRS,4SR,9SR,9aRS)-4,9-ethano-9-(4-methoxyphenyl)-2-[2-(2-methoxyphenyl)propenoyl]-2,3,3a,4,9,9a-hexahydro-1H-benzo[f]isoindole-3a-carboxylate] was tested, and the IC50 was 460 nM.
